Assay results from patent US20260014147A1, “STAT6 DEGRADERS” (Gilead Sciences, Inc., priority 2024, published 2026).

Target: T1, STAT6 (endogenous, HiBiT-tagged) in HeLa LgBiT clone 4.14 cells (Homo sapiens, UniProt P42226)
T1 construct: These cells express endogenous STAT6; host or cells: HeLa LgBiT clone 4.14
T1 sequence (P42226 1-847): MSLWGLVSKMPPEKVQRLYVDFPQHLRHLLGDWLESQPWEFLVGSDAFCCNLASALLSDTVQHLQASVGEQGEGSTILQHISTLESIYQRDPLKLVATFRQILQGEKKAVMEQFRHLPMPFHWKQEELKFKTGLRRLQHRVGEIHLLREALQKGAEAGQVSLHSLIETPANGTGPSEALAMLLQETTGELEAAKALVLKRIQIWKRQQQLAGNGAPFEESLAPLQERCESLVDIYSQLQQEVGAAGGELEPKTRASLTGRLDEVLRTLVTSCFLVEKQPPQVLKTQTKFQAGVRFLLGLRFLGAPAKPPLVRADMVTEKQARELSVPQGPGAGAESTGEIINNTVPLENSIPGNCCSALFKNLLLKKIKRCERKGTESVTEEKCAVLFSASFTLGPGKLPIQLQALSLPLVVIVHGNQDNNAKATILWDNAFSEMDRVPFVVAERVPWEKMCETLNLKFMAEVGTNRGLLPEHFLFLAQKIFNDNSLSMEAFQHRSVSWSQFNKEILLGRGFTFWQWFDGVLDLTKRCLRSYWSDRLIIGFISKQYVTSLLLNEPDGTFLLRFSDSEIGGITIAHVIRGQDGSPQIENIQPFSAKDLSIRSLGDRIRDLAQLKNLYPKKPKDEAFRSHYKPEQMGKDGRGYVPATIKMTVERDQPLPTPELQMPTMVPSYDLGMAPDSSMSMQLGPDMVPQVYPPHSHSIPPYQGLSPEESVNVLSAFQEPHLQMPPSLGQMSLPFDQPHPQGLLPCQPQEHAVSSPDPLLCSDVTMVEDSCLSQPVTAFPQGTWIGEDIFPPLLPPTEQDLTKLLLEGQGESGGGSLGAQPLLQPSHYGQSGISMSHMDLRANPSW
Assay: STAT6 Degrader Assay (HiBiT based, HeLa LgBiT clone 4.14 cells, luminescence, DC50)
Format: cell-based
Details: DC50 provided for test compounds with >80% Emax, geometric mean, read-out: STAT6 degradation DC50
How it was run: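 Remaining STAT6 is read as NanoBiT luminescence after 0.5 h with Nano-Glo, in HeLa LgBiT clone 4.14 cells expressing endogenous HiBiT-tagged STAT6, following 4-24 h compound incubation at 37 °C. Full degradation is set by 50 µM terfenadine, which kills the cells; degradation plotted against log compound concentration.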

Compound	DC50
Cn1c(CN2CCC(c3ccc(C(=O)N4CCC(CN5CCC(N6CCN(c7ccc(NC8CCC(=O)NC8=O)cc7F)CC6)C(F)(F)C5)CC4)cc3)CC2)cc2c(-c3ccc(N)nc3)ccnc21 (centres unmarked) [Example 2p2, 3-((4-(4-(1-((1-(4-(1-((4-(6-aminopyridin-3-yl)-1-methyl-1H-pyrrolo[2,3-b]pyridin-2-yl)-methyl)piperidin-4-yl)benzoyl)piperidin-4-yl)methyl)-3,3-difluoropiperidin-4-yl)piperazin-1-yl)-3-fluorophenyl)amino)piperidine-2,6-dione]	61 nM
COCc1nc2cc(-c3ccnc4c3cc([C@H](C)N3CCC(c5ccc(C(=O)N6CCC(CN7CCC(c8ccc(NC9CCC(=O)NC9=O)cc8F)C(F)(F)C7)CC6)cc5)CC3)n4C)ccc2[nH]1 (stereo partly drawn) [Example 2m3, 3-((4-(3,3-difluoro-1-((1-(4-(1-((S)-1-(4-(2-(methoxymethyl)-1H-benzo[d]imidazol-5-yl)-1-methyl-1H-pyrrolo[2,3-b]pyridin-2-yl)ethyl)piperidin-4-yl)benzoyl)piperidin-4-yl)methyl)piperidin-4-yl)-3-fluorophenyl)amino)piperidine-2,6-dione]	23.5 nM
COCc1nc2cc(-c3ccnc4c3cc(CN3CCC(c5ccc(C(=O)N6CCC(CN7CCN(c8ccc(NC9CCC(=O)NC9=O)cc8F)C[C@H]7C)CC6)cc5)CC3)n4C)ccc2[nH]1 (stereo partly drawn) [Example 2f7, 3-((3-fluoro-4-((R)-4-((1-(4-(1-((4-(2-(methoxymethyl)-1H-benzo[d]imidazol-5-yl)-1-methyl-1H-pyrrolo[2,3-b]pyridin-2-yl)methyl)piperidin-4-yl)benzoyl)piperidin-4-yl)methyl)-3-methylpiperazin-1-yl)phenyl)-amino)piperidine-2,6-dione]	6.6 nM

Same assay, conditions: Emax provided for test compounds with <80% Emax (and 2c15), geometric mean, read-out: STAT6 degradation Emax

Compound	Emax
Cn1c(CN2CC=C(c3ccc(C(=O)N4CCn5nc(CN6CCC(c7ccc(NC8CCC(=O)NC8=O)cc7F)CC6)cc5C4)cn3)CC2)cc2c(-c3ccc(N)nn3)ccnc21 (centres unmarked) [Example 2c38, 3-((4-(1-((5-(1′-((4-(6-aminopyridazin-3-yl)-1-methyl-1H-pyrrolo[2,3-b]pyridin-2-yl)methyl)-1′, 2′, 3′, 6′-tetrahydro-[2,4′-bipyridine]-5-carbonyl)-4,5,6,7-tetrahydropyrazolo[1,5-a]pyrazin-2-yl)methyl)piperidin-4-yl)-3-fluorophenyl)amino)piperidine-2,6-dione]	< 20%
C[C@@H](c1cc2c(-c3ccc(N)nc3)ccnc2n1C)N1CCC(c2ccc(C(=O)N3CCC(CN4CCN(c5ccc(NC6CCC(=O)NC6=O)cc5C(F)(F)F)CC4)CC3)cc2)CC1 (stereo partly drawn) [Example 2i7, 3-((4-(4-((1-(4-(1-((S)-1-(4-(6-aminopyridin-3-yl)-1-methyl-1H-pyrrolo[2,3-b]pyridin-2-yl)-ethyl)-piperidin-4-yl)benzoyl)piperidin-4-yl)methyl)piperazin-1-yl)-3-(trifluoromethyl)phenyl)amino)-piperidine-2,6-dione]	40 to 50%

Tested on: Eotaxin-3 (CCL26) release in human whole blood stimulated with IL-4
Assay: Human Whole Blood Eotaxin-3 Assay (IL-4 stimulated, inhibition of eotaxin-3 release)
Format: cell-based
Details: Homo sapiens, EC50 provided for test compounds with >80% Emax, geometric mean across assay runs and batches
Experimental: This was a human whole blood assay using recombinant human Interleukin 4 to stimulate the blood and measuring the ability of the test compounds to inhibit eotaxin-3 release. The biological activities of the test compounds have been tested in human whole blood stimulated with IL-4 measuring Eotaxin-3 release. The test compounds were added to 384 well clear flat-bottom plate in a 4-fold serial dilution in triplicates using a liquid handler. Human whole blood stabilized in lithium-heparin tubes was added in a volume of 65 uL per well, resulting in a final DMSO concentration of 0.5%. The plate is incubated for 2 h at 37° C. under 5% CO2/95% air. Subsequently, 5 μL of recombinant human IL-4 (R&D Systems, cat #204-ILB) was added to the wells to a final concentration of 400 pM. The plate was incubated for 48 h at 37° C. under 5% CO2/95% air. The plate was spun down for 10 minutes at 500×g and 20 uL supernatant was harvested and transferred to a 384 well v-bottom plate using a liquid handler and stored at −20° C. until further analysis. 10 uL supernatant was used to measure the level of Eotaxin-3 (CCL26) using Human Eotaxin-3 MSD kit from Mesocsale (Cat #K251UEK-4). The assay was performed according to the manufacture instructions.
The data from the human whole blood eotaxin-3 assay is shown below for Examples 2q11, 2110, and 2c49 (where the effect in % is plotted against the test concentration in M on a log-scale).

Compound	EC50
COCc1nc2cc(-c3ccnc4c3cc(CN3CCC(c5ccc(C(=O)N6CCn7nc(CN8CCC(c9ncc(NC%10CCC(=O)NC%10=O)cc9F)CC8)cc7C6)cc5)CC3)n4C)ccc2[nH]1 (centres unmarked) [Example 2q8, 3-((5-fluoro-6-(1-((5-(4-(1-((4-(2-(methoxymethyl)-1H-benzo[d]imidazol-5-yl)-1-methyl-1H-pyrrolo[2,3-b]pyridin-2-yl)methyl)piperidin-4-yl)benzoyl)-4,5,6,7-tetrahydropyrazolo[1,5-a]pyrazin-2-yl)methyl)piperidin-4-yl)pyridin-3-yl)amino)piperidine-2,6-dione]	25.1 nM
C[C@H]1CN(c2ncc(NC3CCC(=O)NC3=O)cc2F)CCN1CC1CCN(C(=O)c2ccc(C3CCN([C@@H](C)c4cc5c(-c6ccc(N)nc6)ccnc5n4C)CC3)cc2)CC1 (stereo partly drawn) [Example 2c55, 3-((6-((S)-4-((1-(4-(1-((S)-1-(4-(6-aminopyridin-3-yl)-1-methyl-1H-pyrrolo[2,3-b]pyridin-2-yl)ethyl)piperidin-4-yl)benzoyl)piperidin-4-yl)methyl)-3-methylpiperazin-1-yl)-5-fluoropyridin-3-yl)amino)piperidine-2,6-dione]	247 nM
C[C@@H](c1cc2c(-c3ccc(N)nc3)ccnc2n1C)N1CCC(c2ccc(C(=O)N3CCC(CN4CCN(c5ccc(NC6CCC(=O)NC6=O)cc5F)C[C@@H]4C(F)(F)F)CC3)cc2)CC1 (single isomer, unassigned) [Example 2f11]	406 nM
CNc1ccc(-c2ccnc3c2cc([C@H](C)N2CC=C(c4c(C)cc(C(=O)N5CCn6nc(CN7CCC(c8ccc(NC9CCC(=O)NC9=O)c(OC)c8)CC7)cc6C5)cc4F)CC2)n3C)cn1 (stereo partly drawn) [Example 2c49, 3-((4-(1-((5-(3-fluoro-5-methyl-4-(1-((S)-1-(1-methyl-4-(6-(methylamino)pyridin-3-yl)-1H-pyrrolo[2,3-b]pyridin-2-yl)ethyl)-1,2,3,6-tetrahydropyridin-4-yl)benzoyl)-4,5,6,7-tetrahydropyrazolo[1,5-a]pyrazin-2-yl)methyl)piperidin-4-yl)-2-methoxyphenyl)amino)piperidine-2,6-dione]	3 nM
COc1cc(N2CCN(CC3CCN(C(=O)c4ccc(C5CCN([C@@H](C)c6cc7c(-c8ccc(N)nc8)ccnc7n6C)CC5)cc4)CC3)CC2)ccc1NC1CCC(=O)NC1=O (stereo partly drawn) [Example 2c40, 3-((4-(4-((1-(4-(1-((S)-1-(4-(6-aminopyridin-3-yl)-1-methyl-1H-pyrrolo[2,3-b]pyridin-2-yl)ethyl)piperidin-4-yl)benzoyl)piperidin-4-yl)methyl)piperazin-1-yl)-2-methoxyphenyl)amino)piperidine-2,6-dione]	112 nM
C[C@H]1CN(c2ccc(NC3CCC(=O)NC3=O)cc2F)CCN1CC1CCN(C(=O)c2ccc(C3CCN([C@@H](C)c4cc5c(-c6ccc(N)nc6)ccnc5n4C)CC3)cc2)CC1 (stereo partly drawn) [Example 2c54, 3-((4-((S)-4-((1-(4-(1-((S)-1-(4-(6-aminopyridin-3-yl)-1-methyl-1H-pyrrolo[2,3-b]pyridin-2-yl)ethyl)piperidin-4-yl)benzoyl)piperidin-4-yl)methyl)-3-methylpiperazin-1-yl)-3-fluorophenyl)amino)piperidine-2,6-dione]	265 nM
CNc1ccc(-c2ccnc3c2cc([C@H](C)N2CC=C(c4c(C)cc(C(=O)N5CCC(CN6CCN(c7ccc(NC8CCC(=O)NC8=O)cc7F)C[C@@H]6C)CC5)cc4F)CC2)n3C)cn1 (stereo partly drawn) [Example 2c47, 3-((3-fluoro-4-((S)-4-((1-(3-fluoro-5-methyl-4-(1-((S)-1-(1-methyl-4-(6-(methylamino)pyridin-3-yl)-1H-pyrrolo[2,3-b]pyridin-2-yl)ethyl)-1,2,3,6-tetrahydropyridin-4-yl)benzoyl)piperidin-4-yl)methyl)-3-methylpiperazin-1-yl)phenyl)amino)piperidine-2,6-dione]	197 nM
C[C@@H](c1cc2c(-c3ccc(N)nc3)ccnc2n1C)N1CCC(c2ccc(C(=O)N3CCC(CN4CCN(c5ccc(NC6CCC(=O)NC6=O)cc5F)C[C@H]4C(F)(F)F)CC3)cc2)CC1 (single isomer, unassigned) [Example 2f10]	385 nM
C[C@@H](c1cc2c(-c3ccc(N)nc3)ccnc2n1C)N1CCC(c2ccc(C(=O)N3CCn4nc(CN5CCN(c6ccc(NC7CCC(=O)NC7=O)cc6F)CC5)cc4C3)cc2)CC1 (stereo partly drawn) [Example 2q15, 3-((4-(4-((5-(4-(1-((S)-1-(4-(6-aminopyridin-3-yl)-1-methyl-1H-pyrrolo[2,3-b]pyridin-2-yl)-ethyl)piperidin-4-yl)benzoyl)-4,5,6,7-tetrahydropyrazolo[1,5-a]pyrazin-2-yl)methyl)piperazin-1-yl)-3-fluoro-phenyl)amino)piperidine-2,6-dione]	37.8 nM
